The source of these data is patent US20250025443A1, “COMPOUNDS AND METHODS FOR TREATING CORONA VIRUSES” (CLEAR CREEK BIO, INC., priority 2021, published 2025).

Where only a bound is given, the exact number is not on record here.

The first experiment addresses SARS-CoV-2 Papain-Like Protease (PLpro) (Severe acute respiratory syndrome coronavirus 2 (2019-nCoV) (SARS-CoV-2), UniProt P0DTD1). The experiment is described as follows: biochemical. Conditions: PLpro 6.25 nM, substrate 25 μM, 60 min at 25° C.; for more potent compounds PLpro 1 nM, 120 min; read-out: PLpro IC50.
As usually defined, the IC50 is the concentration at which inhibition is half-maximal. For the compound `COc1ccc(C)c(C(=O)N[C@H](C)c2cccc3ccccc23)c1` [Compound 136, (R)-5-Methoxy-2-methyl-N-(1-(naphthalen-1-yl)ethyl)benzamide], the IC50 was in the range of 1000 to 5000 nM.
As to `CC(=O)c1ccc(C)c(C(=O)N[C@H](C)c2cccc3ccccc23)c1` [Compound 155, (R)-5-Acetyl-2-methyl-N-(1-(naphthalen-1-yl)ethyl)benzamide], the IC50 was more than 5000 nM.
On the same count and under the same terms, in the case of `Cc1ccc(NC2CNC2)cc1C(=O)NC(C)c1cccc2c1OCCO2` (centres unmarked) [Compound 168, 5-(Azetidin-3-ylamino)-N-(1-(2,3-dihydrobenzo[b][1,4]dioxin-5-yl)ethyl)-2-methylbenzamide] it was more than 5000 nM; in that of `Cc1ccc(NC2CNC2)cc1C(=O)NC(C)c1cccc2c1CCCC2` (centres unmarked) [Compound 172, 5-(Azetidin-3-ylamino)-2-methyl-N-(1-(5,6,7,8-tetrahydronaphthalen-1-yl)ethyl)benzamide], more than 5000 nM.

Still in this experiment, the particulars now being: SARS-CoV-2 PLpro enzymatic fluorescence assay; read-out: PLpro IC50.
For the compound `Cc1ccc(Nc2cnn(C)c2)cc1C(=O)N[C@H](C)c1cccc(-c2ccc(CN[C@H]3CC[C@@H](O)C3)s2)c1` [Compound 137, N-((R)-1-(3-(5-((((1S,3R)-3-Hydroxycyclopentyl)amino)methyl)thiophen-2-yl)phenyl)ethyl)-2-methyl-5-((1-methyl-1H-pyrazol-4-yl)amino)benzamide], the IC50 lay within 1000 to 5000 nM.
Consider `Cc1ccc(N)cc1S(=O)(=O)N[C@H](C)c1cccc2ccccc12` [Compound 138, (R)-5-Amino-2-methyl-N-(1-(naphthalen-1-yl)ethyl)benzenesulfonamide], for which the IC50 was more than 5000 nM.
Turning to `CC(c1cccc2ccccc12)N1CCc2ccc(NC(=O)Cc3ccccc3)cc2C1` (centres unmarked) [Compound 139, N-(2-(1-(Naphthalen-1-yl)ethyl)-1,2,3,4-tetrahydroisoquinolin-7-yl)-2-phenylacetamide], the IC50 was more than 5000 nM.
As to `Cc1ccc(Nc2cn[nH]c2)cc1C(=O)N[C@H](C)c1cccc(-c2ccc(CN[C@H]3CC[C@@H](O)C3)s2)c1` [Compound 140, 5-((1H-Pyrazol-4-yl)amino)-N-((R)-1-(3-(5-((((1S,3R)-3-hydroxycyclopentyl)amino)methyl)thiophen-2-yl)phenyl)ethyl)-2-methylbenzamide], the IC50 was 1000 to 5000 nM.
Regarding `Cc1cc2cn[nH]c2cc1C(=O)N[C@H](C)c1cccc2ccccc12` [Compound 142, (R)-5-Methyl-N-(1-(naphthalen-1-yl)ethyl)-1H-indazole-6-carboxamide], the IC50 lay in the range of 100 to 1000 nM.
Same read-out and setting: in the case of `CC(c1cccc2ccccc12)N1CC(CC(=O)NCc2cccc(F)c2)C1` (centres unmarked) [Compound 143, N-(3-Fluorobenzyl)-2-(1-(1-(naphthalen-1-yl)ethyl)azetidin-3-yl)acetamide] it was more than 5000 nM.
For the compound `CC(c1cccc2ccccc12)N1CCC(C(=O)NCc2cccc(F)c2)C1` (centres unmarked) [Compound 144, N-(3-Fluorobenzyl)-1-(1-(naphthalen-1-yl)ethyl)pyrrolidine-3-carboxamide], the IC50 is more than 5000 nM.
Still for that read-out and setting: to `Cc1cc2c(cc1C(=O)N[C@H](C)c1cccc3ccccc13)OCO2` [Compound 145, (R)-6-Methyl-N-(1-(naphthalen-1-yl)ethyl)benzo[d][1,3]dioxole-5-carboxamide] belongs 1000 to 5000 nM; to `Cc1ccc(N)cc1C(=O)NC1(c2cccc3ccccc23)CC1` [Compound 147, 5-Amino-2-methyl-N-(1-(naphthalen-1-yl)cyclopropyl)benzamide], 100 to 1000 nM; to `Cc1cc2cc(CN)[nH]c2cc1C(=O)N[C@H](C)c1cccc2ccccc12` [Compound 148, (R)-2-(Aminomethyl)-5-methyl-N-(1-(naphthalen-1-yl)ethyl)-1H-indole-6-carboxamide], 100 to 1000 nM.
In the case of `C[C@H](c1cccc2ccccc12)N1C[C@@H]2[C@H](C1)[C@H]2C(=O)NCc1cccc(F)c1` [Compound 149], the IC50 was more than 5000 nM.
In the case of `Cc1cc2cccnc2cc1C(=O)N[C@H](C)c1cccc2ccccc12` [Compound 150, (R)-6-Methyl-N-(1-(naphthalen-1-yl)ethyl)quinoline-7-carboxamide], the IC50 fell in the range of 1000 to 5000 nM.
For the compound `Cc1cc2nc(CN)[nH]c2cc1C(=O)N[C@H](C)c1cccc(-c2ccc(CN[C@H]3CC[C@@H](O)C3)s2)c1` [Compound 151, 2-(Aminomethyl)-N-((R)-1-(3-(5-((((1S,3R)-3-hydroxycyclopentyl)amino)methyl)thiophen-2-yl)phenyl)ethyl)-5-methyl-1H-benzo[d]imidazole-6-carboxamide], the IC50 lay in the range of 100 to 1000 nM.
For `Cc1ccc(OC2COC2)cc1C(=O)N[C@H](C)c1cccc2ccccc12` [Compound 152, (R)-2-Methyl-N-(1-(naphthalen-1-yl)ethyl)-5-(oxetan-3-yloxy)benzamide], the IC50 was in the range of 1000 to 5000 nM.
For the compound `Cc1cc2cc[nH]c2cc1C(=O)N[C@H](C)c1cccc2ccccc12` [Compound 153, (R)-5-Methyl-N-(1-(naphthalen-1-yl)ethyl)-1H-indole-6-carboxamide], the IC50 lay in the range of 1000 to 5000 nM.
Still for that read-out and setting: in the case of `Cc1cc2cccnc2cc1C(=O)N[C@H](C)c1cccc(-c2ccc(CN[C@H]3CC[C@@H](O)C3)s2)c1` [Compound 154, N-((R)-1-(3-(5-((((1S,3R)-3-Hydroxycyclopentyl)amino)methyl)thiophen-2-yl)phenyl)ethyl)-6-methylquinoline-7-carboxamide] it was 1000 to 5000 nM; in that of `Cc1cc2cc(C3CNC3)[nH]c2cc1C(=O)N[C@H](C)c1cccc2ccccc12` [Compound 156, (R)-2-(Azetidin-3-yl)-5-methyl-N-(1-(naphthalen-1-yl)ethyl)-1H-indole-6-carboxamide], 1000 to 5000 nM; in that of `Cc1ccc(OCCNC(=O)OC(C)(C)C)cc1C(=O)N[C@H](C)c1cccc2ccccc12` [Compound 158, (R)-tert-Butyl(2-(4-methyl-3-((1-(naphthalen-1-yl)ethyl)carbamoyl)phenoxy)ethyl)carbamate], 1000 to 5000 nM.
With `Cc1ccc(OCCN(C)C)cc1C(=O)N[C@H](C)c1cccc2ccccc12` [Compound 160, (R)-5-(2-(Dimethylamino)ethoxy)-2-methyl-N-(1-(naphthalen-1-yl)ethyl)benzamide], the IC50 is 100 to 1000 nM.
For `CCS(=O)(=O)N1CCC([C@@H](C)NC(=O)c2cc(NC3CN(C(=O)OC(C)(C)C)C3)ccc2C)CC1` [Compound 161, tert-Butyl (R)-3-((3-((1-(1-(ethylsulfonyl)piperidin-4-yl)ethyl)carbamoyl)-4-methylphenyl)amino)azetidine-1-carboxylate], the IC50 is more than 5000 nM.
With `Cc1ccc(OC2CCNCC2)cc1C(=O)N[C@H](C)c1cccc2ccccc12` [Compound 162, (R)-2-Methyl-N-(1-(naphthalen-1-yl)ethyl)-5-(piperidin-4-yloxy)benzamide], the half-inhibitory concentration (IC50) was 100 to 1000 nM.
Turning to `Cc1ccc(N)cc1NC(=O)C(C)c1cccc2ccccc12` (centres unmarked) [Compound 163, N-(5-Amino-2-methylphenyl)-2-(naphthalen-1-yl)propanamide], the IC50 was more than 5000 nM.
As to `Cc1ccc(OC2CCN(C(=O)OC(C)(C)C)CC2)cc1C(=O)N[C@H](C)c1cccc2ccccc12` [Compound 164, (R)-tert-Butyl 4-(4-methyl-3-((1-(naphthalen-1-yl)ethyl)carbamoyl)phenoxy)piperidine-1-carboxylate], the IC50 is 1000 to 5000 nM.
As for `CC(=O)N(c1ccc(C)c(C(=O)N[C@H](C)c2cccc3ccccc23)c1)C(CN)CO` (stereo partly drawn) [Compound 165, 5-(N-(1-Amino-3-hydroxypropan-2-yl)acetamido)-2-methyl-N-((R)-1-(naphthalen-1-yl)ethyl)benzamide], the IC50 is more than 5000 nM.
Take `CCS(=O)(=O)N1CCC([C@@H](C)NC(=O)c2cc(NC3CNC3)ccc2C)CC1` [Compound 166, (R)-5-(Azetidin-3-ylamino)-N-(1-(1-(ethylsulfonyl)piperidin-4-yl)ethyl)-2-methylbenzamide]: the half-inhibitory concentration (IC50) was more than 5000 nM.
As to `Cc1cc2ccc(=O)[nH]c2cc1C(=O)N[C@H](C)c1cccc2ccccc12` [Compound 167, (R)-6-Methyl-N-(1-(naphthalen-1-yl)ethyl)-2-oxo-1,2-dihydroquinoline-7-carboxamide], the IC50 is more than 5000 nM.
Turning to `Cc1ccc(NC2CNC2)cc1C(=O)NC1(c2cccc(-c3cccs3)c2)CC1` [Compound 169, 5-(Azetidin-3-ylamino)-2-methyl-N-(1-(3-(thiophen-2-yl)phenyl)cyclopropyl)benzamide], the IC50 was in the range of 100 to 1000 nM.
Take `Cc1cc2cc(CN)[nH]c2cc1C(=O)NC1(c2cccc3ccccc23)CC1` [Compound 170, 2-(Aminomethyl)-5-methyl-N-(1-(naphthalen-1-yl)cyclopropyl)-1H-indole-6-carboxamide]: the IC50 was less than 100 nM.
For `Cc1ccc(OC2CNC2)cc1C(=O)NC1(c2cccc3ccccc23)CC1` [Compound 171, 5-(Azetidin-3-yloxy)-2-methyl-N-(1-(naphthalen-1-yl)cyclopropyl)benzamide], the IC50 is 100 to 1000 nM.
On to `Cc1cc2cc(CN(C)C)[nH]c2cc1C(=O)NC1(c2cccc3ccccc23)CC1` [Compound 173, 2-((Dimethylamino)methyl)-5-methyl-N-(1-(naphthalen-1-yl)cyclopropyl)-1H-indole-6-carboxamide], for which the IC50 is 100 to 1000 nM.
For `Cc1cc2cn[nH]c2cc1C(=O)NC1(c2cccc3ccccc23)CC1` [Compound 176, 5-Methyl-N-(1-(naphthalen-1-yl)cyclopropyl)-1H-indazole-6-carboxamide], the IC50 lay within 100 to 1000 nM.
Consider `Cc1ccc(NC2CNC2)cc1C(=O)NC1(c2cccc3ccccc23)CC1` [Compound 177, 5-(Azetidin-3-ylamino)-2-methyl-N-(1-(naphthalen-1-yl)cyclopropyl)benzamide], for which the IC50 is 100 to 1000 nM.
Consider `c1ccc2c(C3(NCc4ccc5[nH]ncc5c4)CC3)cccc2c1` [Compound 178, N-((1H-indazol-5-yl)methyl)-1-(naphthalen-1-yl)cyclopropan-1-amine], for which the IC50 is more than 5000 nM.
As to `Cc1cc2cc(CNC(=O)OC(C)(C)C)[nH]c2cc1C(=O)NC1(c2cccc3ccccc23)CC1` [Compound 180, tert-Butyl((5-methyl-6-((1-(naphthalen-1-yl)cyclopropyl)carbamoyl)-1H-indol-2-yl)methyl)carbamate], the IC50 lay within 100 to 1000 nM.
